Data on eight compounds can be found in patent publication USRE50663E1, “Heterocycle derivatives as pesticides” (Bayer Aktiengesellschaft, priority 2017, dated 2025).

Like-named read-outs stand apart in the source and are kept apart here.

Data set [1] has as its system adult cat fleas (Ctenocephalides felis). Briefly: Ctenocephalides felis oral test. To be noted: 48 h, read-out: efficacy (kill). The class given is in vivo. Here is the method:
(§1) Solvent: dimethyl sulfoxide
To produce a suitable active compound formulation, 10 mg of active compound are mixed with 0.5 ml of dimethyl sulfoxide. Dilution with citrated cattle blood gives the desired concentration.
About 20 unfed adult cat fleas (Ctenocephalides felis) are placed into a chamber which is closed at the top and bottom with gauze. A metal cylinder whose bottom end is closed with parafilm is placed onto the chamber. The cylinder contains the blood/active compound formulation, which can be imbibed by the fleas through the parafilm membrane.
After 2 days, the kill in % is determined. 100% means that all of the fleas have been killed; 0% means that none of the fleas have been killed.

The test system is the same in data set [2]. The data set is described as follows: Ctenocephalides felis in vitro contact test with adult cat fleas. To be noted: application rate 5 μg/cm^2 (=500 g/ha), after 48 h, dead or moribund fleas. It is filed as in vivo. Here is the method:
For the coating of the test tubes, 9 mg of active compound are first dissolved in 1 ml of acetone p.a. and then diluted to the desired concentration with acetone p.a. 250 μl of the solution are distributed homogeneously on the inner walls and the base of a 25 ml glass tube by turning and rocking on an orbital shaker (rocking rotation at 30 rpm for 2 h). With 900 ppm of active compound solution and internal surface area 44.7 cm^2, given homogeneous distribution, an area-based dose of 5 μg/cm^2 is achieved.
After the solvent has evaporated off, the tubes are populated with 5-10 adult cat fleas (Ctenocephalides felis), sealed with a perforated plastic lid and incubated in a horizontal position at room temperature and ambient humidity. After 48 h, efficacy is determined. To this end, the tubes are stood upright and the fleas are knocked to the base of the tube. Fleas which remain motionless at the base or move in an uncoordinated manner are considered to be dead or moribund.
100% efficacy means that all the fleas were dead or moribund. 0% efficacy means that no fleas were harmed.

Data set [3] deals with L1 larvae of the Australian sheep blowfly (Lucilia cuprina). The data set is described as follows: Lucilia cuprina test. It is filed as in vivo. To be noted: 48 h, read-out: efficacy (kill). As for the experimental part: as §1
To produce a suitable active compound formulation, 10 mg of active compound are mixed with 0.5 ml of dimethyl sulfoxide, and the concentrate is diluted with water to the desired concentration.
About 20 L1 larvae of the Australian sheep blowfly (Lucilia cuprina) are transferred into a test vessel containing minced horsemeat and the active compound formulation of the desired concentration.
After 2 days, the kill in % is determined. 100% means that all the larvae have been killed; 0% means that no larvae have been killed.

Data set [4] deals with caterpillars of the fall armyworm (Spodoptera frugiperda). The data set is described as follows: Spodoptera frugiperda spray test. It is filed as in vivo. The settings on record: foliar, 168 h, read-out: efficacy. Here is the method: (§2) Solvent: 78.0 parts by weight of acetone • • 1.5 parts by weight of dimethylformamide
(§3) Emulsifier: alkylaryl polyglycol ether
(§4) To produce a suitable active compound formulation, 1 part by weight of active compound is dissolved with the specified parts by weight of solvent and made up to the desired concentration with water containing an emulsifier concentration of 1000 ppm. To produce further test concentrations, the formulation is diluted with emulsifier-containing water.
Leaf discs of maize (Zea mays) are sprayed with an active compound formulation of the desired concentration and, after drying, populated with caterpillars of the fall armyworm (Spodoptera frugiperda).
After 7 days, the efficacy in % is determined. 100% means that all the caterpillars have been killed; 0% means that no caterpillar has been killed.

In data set [5] the test system is green peach aphids (Myzus persicae). The data set is described as follows: Myzus persicae oral test. To be noted: 120 h, read-out: efficacy. The class given is in vivo. Here is the method: Solvent: 100 parts by weight of acetone
To produce a suitable active compound formulation, 1 part by weight of active compound is dissolved with the stated parts by weight of solvent and made up to the desired concentration with water.
50 μl of the active compound formulation are transferred into microtitre plates and made up to a final volume of 200 μl with 150 μl of IPL41 insect medium (33%+15% sugar). Subsequently, the plates are sealed with parafilm, which a mixed population of green peach aphids (Myzus persicae) within a second microtitre plate is able to puncture and imbibe the solution.
(§5) After 5 days, the efficacy in % is determined. 100% means that all the aphids have been killed; 0% means that no aphids have been killed.

For data set [6], the system named is larvae of the mustard beetle (Phaedon cochleariae). The data set is described as follows: Phaedon cochleariae spray test. The class given is in vivo. The settings on record: foliar, 168 h, read-out: efficacy. As for the experimental part: as §2, §3, §4
Discs of Chinese cabbage leaves (Brassica pekinensis) are sprayed with an active compound formulation of the desired concentration and, after drying, populated with larvae of the mustard beetle (Phaedon cochleariae).
After 7 days, the efficacy in % is determined. 100% means that all the beetle larvae have been killed; 0% means that no beetle larvae have been killed.

In data set [7] the test system is green peach aphid (Myzus persicae). The data set is described as follows: Myzus persicae spray test. The class given is in vivo. The settings on record: foliar, 120 h, read-out: efficacy. Here is the method:
Solvent: 78 parts by weight of acetone • • 1.5 parts by weight of dimethylformamide
as §3, §4
Discs of Chinese cabbage leaves (Brassica pekinensis) infested by all stages of the green peach aphid (Myzus persicae) are sprayed with an active compound formulation of the desired concentration.
as §5

Data set [8] can be described thus: logP by HPLC on reversed-phase column (C18), acidic range. It is filed as physicochemical. To be noted: formic acid in water/acetonitrile. As for the experimental part: The logP values were determined according to EEC Directive 79/831 Annex V.A8 by HPLC (high-performance liquid chromatography) on a reversed-phase column (C18) using the following methods:
Calibration was carried out using a homologous series of straight-chain alkan-2-ones (having 3 to 16 carbon atoms) with known logP values. The values between successive alkanones are determined by linear regression.

[9] abbreviates: 100 ppm in citrated cattle blood, after 2 days.
Where [10] appears, read: 100 g/ha, after 7 days, maize leaf discs.
The mark [11] stands for this setting: 100 g/ha, after 7 days, Chinese cabbage leaf discs.
Setting [12] is: 100 g/ha, after 5 days, Chinese cabbage leaf discs.

As usually defined, the chromatographic logP is lipophilicity estimated from chromatographic retention.

Regarding `CCS(=O)(=O)c1c(-c2nc3cc(SC(F)(F)F)cnc3n2C)nc2cc(NC(=O)C3CC3)ccn12` [Example I-13], the pest or weed control at 100 ppm amounted to 100% in data set [1] (setting [9]) and 100% in data set [3] (100 ppm, after 2 days). In data set [2], this compound registered an efficacy of 100%. Moreover, the pest or weed control at 100 g/ha was 100% in data set [4] (setting [10]), 100% in data set [6] (setting [11]) and 90% in data set [7] (setting [12]). Also, the pest or weed control at 4 ppm in data set [5] (4 ppm, after 5 days) is 100%.
Regarding `CCS(=O)(=O)c1c(-c2nc3cc(C(F)(F)F)cnc3n2C)nc2cc(C(=O)NNC3CC3)ccn12` [Example I-10, N′-Cyclopropyl-3-(ethylsulfonyl)-2-[3-methyl-6-(trifluoromethyl)-3H-imidazo[4,5-b]pyridin-2-yl]imidazo[1,2-a]pyridine-7-carbohydrazide], the pest or weed control at 4 ppm in data set [5] (4 ppm, after 5 days) worked out at 100%. This compound also registered a chromatographic logP in data set [8] (reversed-phase HPLC column (C18)) of 2.41. The pest or weed control at 100 g/ha in data set [7] (setting [12]) came out at 90%.
With `CCS(=O)(=O)c1c(-c2nc3cc(C(F)(F)F)cnc3n2C)nc2cc(NC(=S)OCC3CC3)ccn12` [Example I-06, O-(Cyclopropylmethyl) {3-(ethylsulfonyl)-2-[3-methyl-6-(trifluoromethyl)-3H-imidazo[4,5-b]pyridin-2-yl]imidazo[1,2-a]pyridin-7-yl}carbamothioate], the pest or weed control at 100 g/ha in data set [4] (in Zea mays) and in data set [6] (in Brassica rapa) was 100% each time. The pest or weed control at 4 ppm in data set [5] was found to be 100%. The chromatographic logP in data set [8] was found to be 3.76.
For `CCS(=O)(=O)c1c(-c2nc3cc(C(F)(F)F)cnc3n2C)nc2cc(/C=C/C3CC3)ccn12` [Example I-14], the pest or weed control at 100 ppm in data set [1] (setting [9]) amounted to 98%. In addition, the pest or weed control at 100 g/ha in data set [4] (setting [10]) was 100%; in data set [6] (setting [11]), 100%; in data set [7] (setting [12]), 90%. In addition, the pest or weed control at 4 ppm in data set [5] (4 ppm, after 5 days) came out at 100%.
Regarding `CCS(=O)(=O)c1c(-c2nc3cc(C(F)(F)F)cnc3n2C)nc2cc(NC(=O)NC3CC3)ccn12` [Example I-03], the pest or weed control at 100 ppm turned out to be 100% in data set [1] (setting [9]) and 100% in data set [3] (100 ppm, after 2 days). In addition, the pest or weed control at 4 ppm in data set [5] (4 ppm, after 5 days) amounted to 100%. Moreover, the pest or weed control at 100 g/ha in data set [6] (setting [11]) and in data set [7] (setting [12]) was 100% each time.
For the compound `CCS(=O)(=O)c1c(-c2nc3cc(C(F)(F)F)cnc3n2C)nc2cc(NC(=O)OCC3CC3)ccn12` [Example I-04], the pest or weed control at 100 ppm in data set [1] (setting [9]) and in data set [3] was 100% each time. Further, the pest or weed control at 100 g/ha in data set [4] (in Zea mays) and in data set [6] (in Brassica rapa) was 100% throughout.
Regarding `CCS(=O)(=O)c1c(-c2nc3cc(C(F)(F)F)cnc3n2C)nc2cc(NC(=O)OC3CCC3)ccn12` [Example I-02], the pest or weed control at 100 ppm in data set [1] (setting [9]) and in data set [3] was 100% in each case. In data set [2], this compound came in with an efficacy of 100%. Also, the pest or weed control at 100 g/ha in data set [4] (in Zea mays) turned out to be 83%; in data set [6] (in Brassica rapa) it was 67%; in data set [7] (in Brassica rapa), 70%. For the same compound, in data set [5], the pest or weed control at 4 ppm was determined as 100%.
Take `CCS(=O)(=O)c1c(-c2nc3cc(C(F)(F)F)cnc3n2C)nc2cc(NC(=O)OC3(C)CC3)ccn12` [Example I-08, 1-Methylcyclopropyl-{3-(ethylsulfonyl)-2-[3-methyl-6-(trifluoromethyl)-3H-imidazo[4,5-b]pyridin-2-yl]imidazo[1,2-a]pyridin-7-yl}carbamate]: the pest or weed control at 100 ppm in data set [1] and in data set [3] was 100% in each case. Moreover, the pest or weed control at 100 g/ha in data set [4] (in Zea mays) and in data set [6] (in Brassica rapa) was 100% in each case. Further, the pest or weed control at 4 ppm in data set [5] came to 100%. In addition, in data set [8], the chromatographic logP amounted to 3.14.
